Data from publication PMC8234231, “In Vitro Inhibition of Renal OCT2 and MATE1 Secretion by Antiemetic Drugs” (International Journal of Molecular Sciences, 2021).
Entries after “also recorded” stand apart in the source; their conditions may differ. One block for each molecule: values may come before it.

Experiments:
[1] = test system: human OCT2 and MATE1; assay: Inhibition of basolateral-to-apical transcellular transport of ASP+ in OCT2/MATE1 double-transfected MDCK cells (Transwell); conditions: inhibitor 0.5–20 μM
Procedure: (§1) Control and OCT2/MATE1-expressing MDCK cells were evaluated for protein expression of OCT2 and MATE1 using SDS-PAGE and western blotting with specific primary antibodies (OCT2, sc292622 1:500 and MATE1, sc133390 1:250, Santa Cruz Biotechnology, Santa Cruz, CA, USA), followed by an antirabbit HRP-conjugated secondary antibody (1:1000, Sigma Aldrich, St. Louis, MO, USA) and Super Signal Western Dura Extended Duration Substrate (Pierce Biotechnology, Rockford, IL, USA). Detection was performed with a FluorChem imager (ProteinSimple, Santa Clara, CA, USA). Both MDCK cell lines were seeded on 0.4 μm transwell inserts (VWR, Radnor, PA, USA) at a density of 2 × 10^5 cells/cm^2. Transport experiments were performed 3 to 5 days after seeding. The integrity of MDCK monolayers was verified by measuring transepithelial electrical resistance (TEER) >150 Ω*cm^2 using an epithelial voltohmmeter, EVOM^2 (World Precision Instruments, Sarasota, FL). Proper formation of tight junctions was also verified by measurement of passive permeability of lucifer yellow in the basolateral-to-apical (B-to-A) direction. Lucifer yellow (20 μM) was applied to the basolateral chamber for 1 h, and media were collected from the apical chamber.
(§2) After washing the cells once with Hank’s Buffered Saline Solution (HBSS) pH 7.4, transport studies were initiated after aspirating the wash buffer from both the apical and basal chambers. […] Cells were lysed with 1% Triton X-100. […] Intracellular fluorescence was normalized to total protein concentration of cell lysates from each transwell using the BCA assay. Experiments were performed in three individual Transwell inserts.

[2] = test system: OCT2 and MATE1; assay: as above; conditions: human, probe ASP+ (25 μM, basolateral chamber)
Procedure: as §1, §2

[3] = test system: human OCT2 and MATE1; assay: Intracellular accumulation of ASP+ in OCT2/MATE1 double-transfected MDCK cells; type: cell-based; conditions: 120 min
Procedure: (§3) Cells were incubated with 5-HT3 antagonists in the apical chamber in HBSS pH 6.0 and 5-HT3 antagonists with ASP^+ (25 μM) in the basolateral chamber in HBSS pH 7.4 and incubated at 37 °C for 120 min. To measure time-dependent transcellular transport, an aliquot of the incubation medium (100 μL) from the apical chamber (receiving chamber) was collected at 40, 60, 90, and 120 min and replaced with an equal volume of fresh buffer containing 5-HT3 antagonist or the positive control chemical at the original concentration. […] Cells were lysed with 1% Triton X-100. […] Experiments were performed in three individual Transwell inserts.

[4] = no reference given, cited from earlier work
[5] = test system: vector control MDCK cells; assay: Intracellular accumulation of ASP+ in vector control MDCK cells; type: cell-based, canine; conditions: 120 min
Procedure: as §3

[6] = molecular target: T1, human OCT2 (Homo sapiens, UniProt O15244); assay: Inhibition of ASP+ uptake in HEK293 cells overexpressing OCT2; type: cell-based; conditions: ASP+ 10 μM
T1 construct: expressed in transfected cells; gift of Dr. Kathy Giacomini, UCSF
T1 sequence (O15244 1-555): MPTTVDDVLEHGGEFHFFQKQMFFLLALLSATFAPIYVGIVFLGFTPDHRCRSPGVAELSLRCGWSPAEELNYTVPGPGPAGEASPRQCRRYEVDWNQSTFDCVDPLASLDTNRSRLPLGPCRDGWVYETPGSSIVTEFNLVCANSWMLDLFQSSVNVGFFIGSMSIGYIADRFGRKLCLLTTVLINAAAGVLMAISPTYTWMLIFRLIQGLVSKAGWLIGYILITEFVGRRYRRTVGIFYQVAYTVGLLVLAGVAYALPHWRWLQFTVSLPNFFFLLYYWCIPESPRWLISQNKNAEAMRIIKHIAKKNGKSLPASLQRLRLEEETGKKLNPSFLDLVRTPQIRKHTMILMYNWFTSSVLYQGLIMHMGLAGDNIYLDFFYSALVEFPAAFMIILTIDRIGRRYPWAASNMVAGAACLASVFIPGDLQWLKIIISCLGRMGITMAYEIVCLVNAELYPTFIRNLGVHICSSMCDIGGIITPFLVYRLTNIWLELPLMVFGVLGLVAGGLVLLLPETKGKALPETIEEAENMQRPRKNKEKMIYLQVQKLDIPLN
Procedure: (§4) After washing once with prewarmed Hank’s Buffered Saline Solution (HBSS), cells were preincubated for 30 min at 37 °C with various 5-HT3 antagonists for OCT2 cells or in a 30 mM NH4Cl solution in HBSS at pH 6.5 for MATE1 cells for intracellular acidification. Uptake into OCT2 cells was initiated through exposure to 10 μM of fluorescent substrate ASP^+ directly in the incubation media. Uptake into MATE1 cells was initiated by application of HBSS at pH 7.4 containing 5-HT3 antagonists and 10 μM of fluorescent substrate ASP^+. […] Media was removed and washed four times with ice-cold HBSS. Cells were lysed with 1% Triton X-100. […] Intracellular fluorescence was normalized to total protein concentration of cell lysates from each well using the bicinchoninic acid (BCA) assay (Pierce Biotechnology, Rockford, IL, USA). Experiments were repeated three separate times, with three to four replicates in each experiment.
(§5) GraphPad Prism v6 (GraphPad Software, La Jolla, CA, USA) was used for statistical analysis.

[7] = molecular target: T2, MATE1 (Homo sapiens, UniProt Q96FL8); assay: Inhibition of ASP+ uptake in HEK293 cells overexpressing MATE1; type: cell-based; conditions: inhibitor 10 μM, HEK293-MATE1 (data not shown)
T2 construct: expressed in transfected cells; gift of Dr. Kathy Giacomini, UCSF
T2 sequence (Q96FL8 1-570): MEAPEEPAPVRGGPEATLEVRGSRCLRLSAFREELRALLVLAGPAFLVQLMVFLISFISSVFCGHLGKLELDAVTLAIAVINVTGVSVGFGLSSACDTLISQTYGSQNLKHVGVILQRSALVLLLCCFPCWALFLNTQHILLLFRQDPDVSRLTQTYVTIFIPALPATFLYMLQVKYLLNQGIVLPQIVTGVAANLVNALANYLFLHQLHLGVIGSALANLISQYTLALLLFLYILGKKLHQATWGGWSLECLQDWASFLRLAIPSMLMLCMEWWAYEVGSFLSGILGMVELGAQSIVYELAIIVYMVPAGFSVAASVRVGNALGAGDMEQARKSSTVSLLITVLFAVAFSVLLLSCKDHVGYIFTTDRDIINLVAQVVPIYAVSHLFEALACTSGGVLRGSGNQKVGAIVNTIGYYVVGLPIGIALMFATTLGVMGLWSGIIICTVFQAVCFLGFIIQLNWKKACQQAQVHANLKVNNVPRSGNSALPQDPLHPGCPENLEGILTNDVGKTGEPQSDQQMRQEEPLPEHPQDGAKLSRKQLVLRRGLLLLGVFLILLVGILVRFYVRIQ
Procedure: as §4, §5

[8] = substrate: CN(C)c1ccc(/C=C/c2cc[n+](C)cc2)cc1; assay: Concentration-dependent uptake of ASP+ in OCT2-expressing HEK293 cells; type: cell-based, human; conditions: other: OCT2-expressing HEK293, 0–100 μM, 1 min; 37.0 °C
Procedure: Figure 2 Time and Concentration-Dependent Accumulation of ASP^+ in HEK293 Cells Overexpressing OCT2 or MATE1. HEK cells expressing empty vector (EV), OCT2, or MATE1 were incubated for different time periods (0.5–20 min, 10 μM ASP^+, 37 °C) to evaluate time-dependent uptake (A) or with increasing concentrations of ASP^+ (0–100 μM, 1 min 37 °C) for concentration-dependent uptake (B) on a shaker. Specific transport uptake is shown in dashed lines. Intracellular fluorescence was quantified and normalized to protein concentration. Data are presented as mean ± SE (n = 3).
OCT2- and MATE1-overexpressing HEK293 cells were seeded in clear poly-^D-lysine-coated 24-well plates (Fisher Scientific, Hanover Park, IL, USA) and grown for 24 h until approximately 90% confluent. […]
GraphPad Prism v6 (GraphPad Software, La Jolla, CA, USA) was used for statistical analysis. Km and Vmax were calculated using nonlinear regression (Michaelis–Menten enzyme kinetics equation, (Y = Vmax × X/(Km + X), fit for least squares). Data with two variables were analyzed using a two-way ANOVA followed by a one-way ANOVA and/or Dunnett’s post-hoc test for multiple comparisons. IC50 values were calculated via a nonlinear regression to fit least squares. Differences were considered statistically significant at p < 0.05.

inhibition of basolateral-to-apical transcellular transport of ASP+, up to [1]: up to 64%
inhibition at 120 min, 20 μM [2]: 36%
Molecule: Cc1nccn1CC1CCc2c(c3ccccc3n2C)C1=O (centres unmarked) [Ondansetron]
effect on B-to-A transport of ASP+ ([1]; 40–120 min, ASP+ 25 μM): inhibited the B-to-A transport of ASP^+ in a concentration-dependent manner; also recorded: inhibited the basolateral-to-apical ASP^+ secretion at all concentrations tested
increase in intracellular ASP+ accumulation ([3]; inhibitor 0.5 and 2.5 μM): 1.3 fold
effect on intracellular ASP+ accumulation ([3]; inhibitor 0.5–20 μM, ASP+ 25 μM): at concentrations of 0.5 and 2.5 μM caused significant intracellular accumulation of ASP^+; also recorded: no difference compared to vehicle at higher concentrations (10 and 20 μM)
half-life [4]: < 6 h
metabolized by cytochrome P450 enzymes in the liver ([4]; range for the named drugs together): 48–95%
decrease in accumulation of ASP+ in control cells ([5]; high concentrations of inhibitor): 40%

Molecule: Cc1cc2c(s1)Nc1ccccc1N=C2N1CCN(C)CC1 [olanzapine]
effect on ASP+ uptake in OCT2-expressing HEK293 cells [6]: inhibited OCT2 activity across a range of concentrations
decrease in intracellular accumulation of ASP+ ([3]; inhibitor 20 μM): 51%
inhibition of MATE1 activity [7]: None of these drugs inhibited MATE1 activity
effect on intracellular accumulation of ASP+ in control cells ([5]; cimetidine 5 and 50 μM, pyrimethamine 1 μM, olanzapine 20 μM): modest decrease in ASP^+ accumulation

B1: human OCT2 (Homo sapiens) (protein)
chain: T1 sequence (O15244 1-555)
notes: expressed in transfected cells; gift of Dr. Kathy Giacomini, UCSF
Km [8]: 2.9 µM
Vmax [8]: 8.1 nmol/mg/min
